Experimental data from US20260199289A1, “USE OF GLYCOGEN METABOLISM INHIBITORS FOR THE TREATMENT OF CANCER” (THE UNIVERSITY OF VERMONT AND STATE AGRICULTURAL COLLEGE, priority 2022, published 2026).
“Also recorded” adds a separate entry of the source.

Tests used:
[1] = tested on: 8505C cells; assay: Glycogen content (colorimetric assay, TEM) in ATC cells; format: cell-based, human; conditions: for glycogen content: 8505C cells, overnight treatment
Protocol: Transmission Electron Microscopy of Glycogen Deposits—Cells were seeded in 10 cm dishes and allowed to adhere overnight. […] Cells were then rinsed with PBS and lifted with trypsin for preparation for TEM as described previously. Thwe et al., “Cell-intrinsic Glycogen Metabolism Supports Early Glycolytic Reprogramming Required for Dendritic Cell Immune Responses,” Cell Metabolism 26:558-567.e555 (2017), which is hereby incorporated by reference in its entirety.
PYGB RNA Interference—For validating successful PYGB knockdown, 4.0×10^4 cells were plated in 12 well plates containing 0.2% Lipofectamine™ 3000 Transfection Reagent and the indicated concentration of siRNA targeting PYGB or control siRNA in 1 ml CTM. RNA was extracted 72 hours later for RT-qPCR analysis and protein was extracted 96 hours later for immunoblotting. For measuring the effect of PYGB knockdown on cell viability, 1.0×10^3 cells were seeded in 96 well plates with 0.15% Lipofectamine™ 3000 Transfection Reagent and the indicated concentration of siRNA targeting PYGB or control siRNA in 200 μl CTM for 7 days before conducting the SRB assay. For measuring the effect of PYGB knockdown on glycogen content, 6.5×10^5 cells were seeded in 10 cm dishes with 0.2% Lipofectamine™ 3000 Transfection Reagent and the indicated concentration of siRNA targeting PYGB or control siRNA in 10 ml CTM for 4 days preceding cell lysis for glycogen determination.
Quantification of Levels of Glycogen, Glucose-1-Phosphate, Glucose-6-Phosphate, Lactate, ATP, Glucose, NADPH, and Glutathione—Briefly, cells were seeded in 10 cm dishes (for measuring glycogen and NADPH), 6 well plates (GIP, G6P, lactate, glucose, and glutathione), or 96 well plates (ATP) and allowed to adhere overnight. CTM was aspirated and cells were rinsed with PBS before application of compounds dissolved in CTM for 24 hours, at which point cells were ~90% confluent. CTM was then aspirated, cells were rinsed with PBS, and lysed according to the respective manufacturer protocol (see Table 4) for metabolite analysis.

[2] = tested on: OCUT-2 cells; assay: SRB cell viability assay in OCUT-2 cells; format: cell-based, human; conditions: indicated concentrations, 48 hours
Protocol: In Vitro Cell Staining for Measuring Drug Efficacy—Thyroid cells (4.0×10^3) were seeded in 96 well plates with 100 μl CTM and allowed to adhere overnight. 100 μl of CTM containing 2× concentration of compound was overlayed in each well for 48 hours unless otherwise indicated. Each well then received 100 μl of 10% w/v cold trichloroacetic acid (Fisher) and incubated at 4° C. for 1 hour to fix the cells. Each well was rinsed 3× with DI H2O and stained with 100 μl 0.057% w/v sulforhodamine B (SRB, Sigma-Aldrich) for 30 minutes at room temperature in the dark. Wells were washed 4× with 300 μl 1% v/v acetic acid (Fisher), and remaining SRB stain was solubilized with 200 μl of 10 mM Tris buffer, pH 10.5 (Fisher). Absorbance was measured at 564 nm with a Synergy 2 Multi-Detection Microplate Reader (Agilent Technologies) and normalized to a vehicle control. Drug synergy was evaluated using the coefficient of drug interaction (CDI) formula: CDI=AB/(A×B)×100, where AB is the percent remaining cells of an indicated combination treatment, A is the average percent remaining cells of agent 1 alone, and B is the average percent remaining cells of agent 2 alone. […] Hao et al., “Effect of Lumiracoxib on Proliferation and Apoptosis of Human Nonsmall Cell Lung Cancer Cells In vitro,” Chin Med J (Engl) 121:602-607 (2008), which is hereby incorporated by reference in its entirety.

[3] = tested on: mouse embryonic fibroblasts; conditions: cited from earlier work
[4] = tested on: 8505C cells; assay: SRB cell viability assay in ATC cells; format: cell-based, human; conditions: 8505C ATC cells; indicated concentrations, 48 hours
Protocol: In Vitro Cell Staining for Measuring Drug Efficacy—Thyroid cells (4.0×10^3) were seeded in 96 well plates with 100 μl CTM and allowed to adhere overnight. 100 μl of CTM containing 2× concentration of compound was overlayed in each well for 48 hours unless otherwise indicated. Each well then received 100 μl of 10% w/v cold trichloroacetic acid (Fisher) and incubated at 4° C. for 1 hour to fix the cells. Each well was rinsed 3× with DI H2O and stained with 100 μl 0.057% w/v sulforhodamine B (SRB, Sigma-Aldrich) for 30 minutes at room temperature in the dark. Wells were washed 4× with 300 μl 1% v/v acetic acid (Fisher), and remaining SRB stain was solubilized with 200 μl of 10 mM Tris buffer, pH 10.5 (Fisher). Absorbance was measured at 564 nm with a Synergy 2 Multi-Detection Microplate Reader (Agilent Technologies) and normalized to a vehicle control. Drug synergy was evaluated using the coefficient of drug interaction (CDI) formula: CDI=AB/(A×B)×100, where AB is the percent remaining cells of an indicated combination treatment, A is the average percent remaining cells of agent 1 alone, and B is the average percent remaining cells of agent 2 alone. […] Hao et al., “Effect of Lumiracoxib on Proliferation and Apoptosis of Human Nonsmall Cell Lung Cancer Cells In vitro,” Chin Med J (Engl) 121:602-607 (2008), which is hereby incorporated by reference in its entirety. […]

[5] = cited from earlier work
[6] = tested on: cell lysates; conditions: cited from earlier work
[7] = target: T1, purified GYS1 (Homo sapiens, UniProt P13807); conditions: cited from earlier work
T1 sequence (P13807 1-737): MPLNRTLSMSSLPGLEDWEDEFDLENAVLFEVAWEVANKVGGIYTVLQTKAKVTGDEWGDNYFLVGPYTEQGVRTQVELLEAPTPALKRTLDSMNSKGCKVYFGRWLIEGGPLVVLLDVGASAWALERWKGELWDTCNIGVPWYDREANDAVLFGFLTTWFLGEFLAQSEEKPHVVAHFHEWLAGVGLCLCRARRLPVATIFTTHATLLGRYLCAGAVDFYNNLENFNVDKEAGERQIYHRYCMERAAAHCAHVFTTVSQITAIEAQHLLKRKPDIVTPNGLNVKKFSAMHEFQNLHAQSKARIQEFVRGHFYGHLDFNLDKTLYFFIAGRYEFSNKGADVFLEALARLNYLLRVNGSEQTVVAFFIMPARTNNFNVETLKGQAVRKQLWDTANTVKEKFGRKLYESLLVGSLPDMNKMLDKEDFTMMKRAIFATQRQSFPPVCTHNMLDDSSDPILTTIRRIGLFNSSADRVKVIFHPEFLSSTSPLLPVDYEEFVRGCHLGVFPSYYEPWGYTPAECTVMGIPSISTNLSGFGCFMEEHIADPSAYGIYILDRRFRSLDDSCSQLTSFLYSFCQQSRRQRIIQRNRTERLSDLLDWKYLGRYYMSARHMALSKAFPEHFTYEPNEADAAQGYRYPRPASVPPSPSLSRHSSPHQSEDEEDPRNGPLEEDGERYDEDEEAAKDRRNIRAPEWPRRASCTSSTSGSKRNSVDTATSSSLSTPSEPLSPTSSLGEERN

COc1ccccc1O [guaiacol]
glycogen content [1]: decrease | decrease of glycogen stores ([1]; ATC cells, stated as comparable to the literature value): ~50% | cell viability (SRB assay) [2]: decrease ATC cell viability | decrease of glycogen stores [3]: 50% | cell viability (SRB assay) [4]: decrease ATC cell viability

CON(C)C(=O)[C@H](O)[C@H](Cc1ccccc1)NC(=O)c1cc2cc(Cl)ccc2[nH]1 [CP316819, 5-chloro-N-[(2S,3R)-3-hydroxy-4-[methoxy(methyl)amino]-4-oxo-1-phenylbutan-2-yl]-1H-indole-2-carboxamide]
glycogen content [1]: increased the glycogen content | glycogen storage in rat brains [5]: enhanced glycogen storage in rat brains | cell viability (SRB assay) [4]: sensitive; also recorded: limited cell viability

Oc1ccc(-c2c(-c3ccc(O)c(O)c3O)n[nH]c2C(F)(F)F)cc1 [yGsy2p-IN-1]
glycogen content [1]: decrease glycogen content; also recorded: successfully reduced glycogen levels | 14C-glucose incorporation [6]: decreased 14C-glucose incorporation in cell lysates | cell viability (SRB assay) [4]: limit ATC viability; also recorded: limited cell viability in ATC cells | inhibition of purified GYS1 [7]: robustly inhibited purified GYS1
